Test results as given in US12077503B2, “Substituted cyclic amides and their use as herbicides” (FMC CORPORATION, priority 2015, dated 2024).

Tests used:
Format in all cases: in vivo
[1] = tested on: barnyardgrass (Echinochloa crus-galli); assay: Test G Pre-Emergence Protocol; details: Echinochloa crus-galli, pre-emergence, 312 h, evaluated after 13 days; for pest or weed control at 15.625 g/ha: 15.625 g ai/ha, read-out: Barnyard grass damage rating (100=total damage to plant; 0=no damage to plant); for pest or weed control at 62.5 g/ha: 62.5 g ai/ha, 100=total damage to plant, 0=no damage to plant, read-out: plant damage rating, Barnyardgrass; for pest or weed control at 250 g/ha: 250 g ai/ha, read-out: Barnyardgrass damage rating (100=total damage to plant; 0=no damage to plant)
Summary of the method: (§1)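 Seeds were sown in standard soil and kept one day in a glasshouse (24/16° C day/night, 14 h light, 65% humidity), then sprayed with compound in acetone/water (50:50) containing 0.5% Tween 20 at 15.625, 62.5 or 250 g/ha. Damage was scored after 13 days (0 = none, 100 = total).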

corn (Zea mays) [2] = assay: Test G Pre-Emergence Protocol; details: Zea mays, pre-emergence, 312 h, evaluated after 13 days; for plant injury at 15.625 g/ha: 15.625 g ai/ha; for plant injury at 15.625 g/ha / plant injury at 250 g/ha: read-out: Corn damage rating (100=total damage to plant; 0=no damage to plant); for plant injury at 62.5 g/ha: 62.5 g ai/ha, 100=total damage to plant, 0=no damage to plant, read-out: plant damage rating, Corn; for plant injury at 250 g/ha: 250 g ai/ha
Summary of the method: as §1

[3] = tested on: giant foxtail (Setaria faberi); assay: Test G Pre-Emergence Protocol; details: Setaria faberi, pre-emergence, 312 h, evaluated after 13 days; for pest or weed control at 15.625 g/ha: 15.625 g ai/ha; for pest or weed control at 15.625 g/ha / pest or weed control at 250 g/ha: read-out: Foxtail, Giant damage rating (100=total damage to plant; 0=no damage to plant); for pest or weed control at 62.5 g/ha: 62.5 g ai/ha, 100=total damage to plant, 0=no damage to plant, read-out: plant damage rating, Foxtail, Giant; for pest or weed control at 250 g/ha: 250 g ai/ha
Summary of the method: as §1

[4] = tested on: ivy-leaved morning glory (Ipomoea hederacea); assay: Test G Pre-Emergence Protocol; details: Ipomoea, pre-emergence, 312 h, evaluated after 13 days; for pest or weed control at 15.625 g/ha: 15.625 g ai/ha, read-out: Morning-glory, Ivy-leaved damage rating (100=total damage to plant; 0=no damage to plant); for pest or weed control at 62.5 g/ha: 62.5 g ai/ha, 100=total damage to plant, 0=no damage to plant, read-out: plant damage rating, Morningglory, Ivy-leaved; for pest or weed control at 250 g/ha: 250 g ai/ha, read-out: Morningglory, Ivy-leaved damage rating (100=total damage to plant; 0=no damage to plant)
Summary of the method: as §1

[5] = tested on: redroot pigweed (Amaranthus retroflexus); assay: Test G Pre-Emergence Protocol; details: Amaranthus retroflexus, pre-emergence, 312 h, evaluated after 13 days; for pest or weed control at 15.625 g/ha: 15.625 g ai/ha; for pest or weed control at 15.625 g/ha / pest or weed control at 250 g/ha: read-out: Pigweed, Redroot damage rating (100=total damage to plant; 0=no damage to plant); for pest or weed control at 62.5 g/ha: 62.5 g ai/ha, 100=total damage to plant, 0=no damage to plant, read-out: plant damage rating, Pigweed, Redroot; for pest or weed control at 250 g/ha: 250 g ai/ha
Summary of the method: as §1

[6] = tested on: velvetleaf (Abutilon theophrasti); assay: Test G Pre-Emergence Protocol; details: Abutilon theophrasti, pre-emergence, 312 h, evaluated after 13 days; for pest or weed control at 15.625 g/ha: 15.625 g ai/ha; for pest or weed control at 15.625 g/ha / pest or weed control at 250 g/ha: read-out: Velvetleaf damage rating (100=total damage to plant; 0=no damage to plant); for pest or weed control at 62.5 g/ha: 62.5 g ai/ha, 100=total damage to plant, 0=no damage to plant, read-out: plant damage rating, Velvetleaf; for pest or weed control at 250 g/ha: 250 g ai/ha
Summary of the method: as §1

[7] = tested on: barnyardgrass (Echinochloa crus-galli); assay: Test G Post-Emergence Protocol; details: Echinochloa crus-galli, post-emergence, 312 h; for pest or weed control at 15.625 g/ha: 15.625 g ai/ha, evaluated after 13 days (100=total damage to plant; 0=no damage to plant), read-out: Barnyardgrass damage rating; for pest or weed control at 62.5 g/ha: 62.5 g ai/ha, read-out: Barnyardgrass damage rating (100=total damage to plant; 0=no damage to plant); for pest or weed control at 62.5 g/ha / pest or weed control at 250 g/ha: evaluated after 13 days; for pest or weed control at 250 g/ha: 250 g ai/ha, read-out: damage to plant, Barnyardgrass (100=total damage to plant; 0=no damage to plant)
Summary of the method: (§2)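 Seedlings grown 8 days in soil in a glasshouse (24/16 °C day/night, 14 h light, 65% humidity) were sprayed post-emergence with compound in acetone/water 50:50 plus 0.5% Tween 20 at 15.625, 62.5 or 250 g/ha. Damage was scored after 13 days on a 0–100 scale (100 = total damage).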

corn (Zea mays) [8] = assay: Test G Post-Emergence Protocol; details: Zea mays, post-emergence, 312 h; for plant injury at 15.625 g/ha: 15.625 g ai/ha, evaluated after 13 days (100=total damage to plant; 0=no damage to plant), read-out: Corn damage rating; for plant injury at 62.5 g/ha: 62.5 g ai/ha, read-out: Corn damage rating (100=total damage to plant; 0=no damage to plant); for plant injury at 62.5 g/ha / plant injury at 250 g/ha: evaluated after 13 days; for plant injury at 250 g/ha: 250 g ai/ha, read-out: damage to plant, Corn (100=total damage to plant; 0=no damage to plant)
Summary of the method: as §2

[9] = tested on: giant foxtail (Setaria faberi); assay: Test G Post-Emergence Protocol; details: Setaria faberi, post-emergence, 312 h; for pest or weed control at 15.625 g/ha: 15.625 g ai/ha, evaluated after 13 days (100=total damage to plant; 0=no damage to plant), read-out: Foxtail, Giant damage rating; for pest or weed control at 62.5 g/ha: 62.5 g ai/ha, read-out: Foxtail, Giant damage rating (100=total damage to plant; 0=no damage to plant); for pest or weed control at 62.5 g/ha / pest or weed control at 250 g/ha: evaluated after 13 days; for pest or weed control at 250 g/ha: 250 g ai/ha, read-out: damage to plant, Foxtail, Giant (100=total damage to plant; 0=no damage to plant)
Summary of the method: as §2

[10] = tested on: ivy-leaved morning glory (Ipomoea hederacea); assay: Test G Post-Emergence Protocol; details: Ipomoea, post-emergence, 312 h; for pest or weed control at 15.625 g/ha: 15.625 g ai/ha, evaluated after 13 days (100=total damage to plant; 0=no damage to plant), read-out: Morningglory, Ivy-leaved damage rating; for pest or weed control at 62.5 g/ha: 62.5 g ai/ha, read-out: Morningglory, Ivy-leaved damage rating (100=total damage to plant; 0=no damage to plant); for pest or weed control at 62.5 g/ha / pest or weed control at 250 g/ha: evaluated after 13 days; for pest or weed control at 250 g/ha: 250 g ai/ha, read-out: damage to plant, Morningglory, Ivy-leaved (100=total damage to plant; 0=no damage to plant)
Summary of the method: as §2

[11] = tested on: redroot pigweed (Amaranthus retroflexus); assay: Test G Post-Emergence Protocol; details: Amaranthus retroflexus, post-emergence, 312 h; for pest or weed control at 15.625 g/ha: 15.625 g ai/ha, evaluated after 13 days (100=total damage to plant; 0=no damage to plant), read-out: Pigweed, Redroot damage rating; for pest or weed control at 62.5 g/ha: 62.5 g ai/ha, read-out: Pigweed, Redroot damage rating (100=total damage to plant; 0=no damage to plant); for pest or weed control at 62.5 g/ha / pest or weed control at 250 g/ha: evaluated after 13 days; for pest or weed control at 250 g/ha: 250 g ai/ha, read-out: damage to plant, Pigweed, Redroot (100=total damage to plant; 0=no damage to plant)
Summary of the method: as §2

[12] = tested on: velvetleaf (Abutilon theophrasti); assay: Test G Post-Emergence Protocol; details: Abutilon theophrasti, post-emergence, 312 h; for pest or weed control at 15.625 g/ha: 15.625 g ai/ha, evaluated after 13 days (100=total damage to plant; 0=no damage to plant), read-out: Velvetleaf damage rating; for pest or weed control at 62.5 g/ha: 62.5 g ai/ha, read-out: Velvetleaf damage rating (100=total damage to plant; 0=no damage to plant); for pest or weed control at 62.5 g/ha / pest or weed control at 250 g/ha: evaluated after 13 days; for pest or weed control at 250 g/ha: 250 g ai/ha, read-out: damage to plant, Velvetleaf (100=total damage to plant; 0=no damage to plant)
Summary of the method: as §2

Compound	pest or weed control at 15.625 g/ha [1]	pest or weed control at 62.5 g/ha [1]	pest or weed control at 250 g/ha [1]	plant injury at 15.625 g/ha (corn (Zea mays) [2])	plant injury at 62.5 g/ha (corn (Zea mays) [2])	plant injury at 250 g/ha (corn (Zea mays) [2])	pest or weed control at 15.625 g/ha [3]	pest or weed control at 62.5 g/ha [3]	pest or weed control at 250 g/ha [3]	pest or weed control at 15.625 g/ha [4]	pest or weed control at 62.5 g/ha [4]	pest or weed control at 250 g/ha [4]	pest or weed control at 15.625 g/ha [5]	pest or weed control at 62.5 g/ha [5]	pest or weed control at 250 g/ha [5]	pest or weed control at 15.625 g/ha [6]	pest or weed control at 62.5 g/ha [6]	pest or weed control at 250 g/ha [6]	pest or weed control at 15.625 g/ha [7]	pest or weed control at 62.5 g/ha [7]	other results
CN1C[C@@H](c2ccc(C(F)(F)F)nc2)[C@H](C(=O)Nc2ccccc2S(C)(=O)=O)C1=O (racemic) [Compound 1586]	0%	0%	90%	0%	10%	30%	0%	20%	70%	0%	0%	10%	0%	40%	60%	0%	0%	30%	0%	0%	pest or weed control at 250 g/ha [7]: 50%; plant injury at 15.625 g/ha (corn (Zea mays) [8]): 0%; plant injury at 62.5 g/ha (corn (Zea mays) [8]): 0%; plant injury at 250 g/ha (corn (Zea mays) [8]): 30%; pest or weed control at 15.625 g/ha [9]: 0%; pest or weed control at 62.5 g/ha [9]: 0%; pest or weed control at 250 g/ha [9]: 70%; pest or weed control at 15.625 g/ha [10]: 0%; pest or weed control at 62.5 g/ha [10]: 0%; pest or weed control at 250 g/ha [10]: 40%; pest or weed control at 15.625 g/ha [11]: 0%; pest or weed control at 62.5 g/ha [11]: 0%; pest or weed control at 250 g/ha [11]: 40%; pest or weed control at 15.625 g/ha [12]: 0%; pest or weed control at 62.5 g/ha [12]: 10%; pest or weed control at 250 g/ha [12]: 10%
CN1C[C@@H](c2ccc(C(F)(F)F)cc2)[C@H](C(=O)Nc2nccc(C(F)(F)F)n2)C1=O (racemic) [Compound 1547]	0%	0%	0%	0%	0%	0%	0%	0%	0%	0%	0%	0%	0%	0%	0%	0%	0%	0%	0%	0%	pest or weed control at 250 g/ha [7]: 0%; plant injury at 15.625 g/ha (corn (Zea mays) [8]): 0%; plant injury at 62.5 g/ha (corn (Zea mays) [8]): 0%; plant injury at 250 g/ha (corn (Zea mays) [8]): 0%; pest or weed control at 15.625 g/ha [9]: 0%; pest or weed control at 62.5 g/ha [9]: 0%; pest or weed control at 250 g/ha [9]: 0%; pest or weed control at 15.625 g/ha [10]: 0%; pest or weed control at 62.5 g/ha [10]: 0%; pest or weed control at 250 g/ha [10]: 0%; pest or weed control at 15.625 g/ha [11]: 0%; pest or weed control at 62.5 g/ha [11]: 0%; pest or weed control at 250 g/ha [11]: 0%; pest or weed control at 15.625 g/ha [12]: 0%; pest or weed control at 62.5 g/ha [12]: 0%; pest or weed control at 250 g/ha [12]: 0%
